Source: patent US20250197382A1, “KIF18A INHIBITOR” (WIGEN BIOMEDICINE TECHNOLOGY (SHANGHAI) CO., LTD., priority 2022, published 2025)

How the values were obtained:
[1] = target: Recombinant human KIF18A (1-467His-tagged) protein (Homo sapiens (Human), UniProt Q8NI77); assay: KIF18A enzyme assay (microtubule-stimulated ATPase activity, ADP-Glo); format: biochemical; conditions: 30 nM KIF18A, ATP 75 μM, read-out: inhibitory activity against KIF18A IC50
How it was run: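 Baculovirus-expressed human KIF18A (1-467, His-tagged; 30 nM) preincubated 15 min at room temperature with compound (22-point 2-fold series) in pH 7.5 Tris buffer containing 30 μg/mL pig microtubules and 1 μM paclitaxel.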

HT-29 cells = assay: In vitro anti-proliferative activity against HT-29 cells (intracellular ATP content, 72 h); format: cell-based; conditions: Homo sapiens, 72 h after dosing
Method: Biological Example 2. In Vitro Anti-Proliferative Activity of Compounds of the Present Invention Against HT-29 Cells
(§1) HT-29 cells were seeded on a 384-well plate at 3000 cells/well. After overnight adherence culture, DMSO or the compounds serially diluted in a 1:5 ratio from 5 μM were added. The viability was assessed 72 h after dosing by measuring the intracellular ATP content. The inhibition percentages of viable cells by the compounds were calculated by comparing with the DMSO group, and the IC so values were also calculated.

HCT116 cells = assay: In vitro anti-proliferative activity against HCT116 cells (intracellular ATP content, 72 h); format: cell-based; conditions: Homo sapiens, HCT-116, 72 h after dosing
Method: Biological Example 3. In Vitro Anti-Proliferative Activity of Compounds of the Present Invention Against HCT116 Cells
as §1, with “HCT116” for “HT-29”, “IC50” for “IC so”

Sequence of Recombinant human KIF18A (1-467His-tagged) protein (Q8NI77 1-467): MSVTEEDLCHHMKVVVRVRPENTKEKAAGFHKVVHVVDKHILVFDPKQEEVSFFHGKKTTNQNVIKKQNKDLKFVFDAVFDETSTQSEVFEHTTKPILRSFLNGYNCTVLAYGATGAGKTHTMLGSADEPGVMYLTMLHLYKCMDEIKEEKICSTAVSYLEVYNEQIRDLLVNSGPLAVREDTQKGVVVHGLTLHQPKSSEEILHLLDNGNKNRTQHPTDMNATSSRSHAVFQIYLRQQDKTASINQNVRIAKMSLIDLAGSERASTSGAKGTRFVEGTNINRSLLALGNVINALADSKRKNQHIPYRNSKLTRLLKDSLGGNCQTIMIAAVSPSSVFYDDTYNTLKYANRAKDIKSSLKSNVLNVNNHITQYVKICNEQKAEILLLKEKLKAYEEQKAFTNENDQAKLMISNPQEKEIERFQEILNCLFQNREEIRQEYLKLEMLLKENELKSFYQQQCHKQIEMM
Sequence of Recombinant human KIF18A (1-467His-tagged) protein (P02550 whole entry partner): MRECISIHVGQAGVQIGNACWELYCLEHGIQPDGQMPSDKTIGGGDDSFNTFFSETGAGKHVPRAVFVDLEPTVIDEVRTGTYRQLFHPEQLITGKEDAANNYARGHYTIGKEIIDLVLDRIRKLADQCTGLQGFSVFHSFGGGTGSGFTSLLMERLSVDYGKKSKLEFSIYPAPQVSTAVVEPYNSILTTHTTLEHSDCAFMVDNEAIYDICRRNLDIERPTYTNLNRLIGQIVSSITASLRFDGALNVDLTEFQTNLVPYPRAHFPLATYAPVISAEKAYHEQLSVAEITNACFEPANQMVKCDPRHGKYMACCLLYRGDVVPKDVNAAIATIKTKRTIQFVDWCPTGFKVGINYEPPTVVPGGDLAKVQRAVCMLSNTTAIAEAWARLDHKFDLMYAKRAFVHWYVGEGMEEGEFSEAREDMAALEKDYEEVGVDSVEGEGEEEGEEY
Sequence of Recombinant human KIF18A (1-467His-tagged) protein (P02554 whole entry partner): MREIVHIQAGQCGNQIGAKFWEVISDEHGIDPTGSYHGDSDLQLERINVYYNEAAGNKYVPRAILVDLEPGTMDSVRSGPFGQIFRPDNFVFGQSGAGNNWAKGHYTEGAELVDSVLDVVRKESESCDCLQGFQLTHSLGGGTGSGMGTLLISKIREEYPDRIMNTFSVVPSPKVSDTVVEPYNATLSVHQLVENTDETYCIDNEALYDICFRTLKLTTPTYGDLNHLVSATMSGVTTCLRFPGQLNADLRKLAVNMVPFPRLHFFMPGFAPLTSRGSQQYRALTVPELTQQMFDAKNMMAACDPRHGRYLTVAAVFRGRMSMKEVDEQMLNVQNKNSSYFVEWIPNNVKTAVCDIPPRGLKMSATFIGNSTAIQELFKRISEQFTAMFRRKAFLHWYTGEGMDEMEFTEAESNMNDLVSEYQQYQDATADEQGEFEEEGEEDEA

| IC50 [1] | IC50 (HT-29 cells) | IC50 (HCT116 cells) | SMILES |
| --- | --- | --- | --- |
| ≤ 100 nM | 69 nM | 8190 nM | O=C(Nc1cc2cc[nH]c2c(N2CCC(F)(F)CC2)n1)c1ccc(NS(=O)(=O)CCO)cc1N1CCC2(CC1)CC2 [Compound 522] |
| – | 38 nM | > 10000 nM | O=C(Nc1cc2cccnc2c(N2CCC(F)(F)CC2)n1)c1ccc(NS(=O)(=O)CCO)cc1N1CCC2(CC1)CC2 [Compound 583] |
| ≤ 100 nM | 8 nM | > 10000 nM | O=C(Nc1cc2c(c(N3CCC(F)(F)CC3)n1)OCC2)c1ccc(NS(=O)(=O)CCO)cc1N1CCC2(CC1)CC2 [Compound 65] |
| ≤ 100 nM | 36 nM | > 10000 nM | O=C(Nc1cc(N2CCC(F)(F)CC2)c2ncccc2c1)c1ccc(NS(=O)(=O)CCO)cc1N1CCC2(CC1)CC2 [Compound 530] |
| ≤ 100 nM | 52 nM | > 10000 nM | O=C(Nc1ccc(NS(=O)(=O)CCO)cc1N1CCC2(CC1)CC2)c1cc2c(c(N3CCC(F)(F)CC3)c1)OCC2 [Compound 33] |
| ≤ 100 nM | 9 nM | > 10000 nM | O=C(Nc1cc2c(c(N3CCC(F)(F)CC3)c1)OCC2)c1ccc(NS(=O)(=O)CCO)cc1N1CCC2(CC1)CC2 [Compound 1] |
| ≤ 100 nM | 61 nM | > 10000 nM | O=C(Nc1ccc(S(=O)(=O)NCCO)cc1N1CCC2(CC1)CC2)c1cc2c(c(N3CCC(F)(F)CC3)c1)OCC2 [Compound 49] |
| ≤ 100 nM | – | > 10000 nM | O=C(Nc1cc2c(c(N3CCC4(CC4)C3)c1)OCC2)c1ccc(NS(=O)(=O)CCO)cc1N1CCC2(CC1)CC2 [Compound 6] |
| – | 70 nM | > 10000 nM | O=C(Nc1ccc(NS(=O)(=O)CCO)cc1N1CCC2(CC1)CC2)c1cc2cccnc2c(N2CCC(F)(F)CC2)n1 [Compound 584] |
| ≤ 100 nM | 56 nM | > 10000 nM | O=C(Nc1cc2c(c(OC3CCC3)n1)OCC2)c1ccc(NS(=O)(=O)CCO)cc1N1CCC2(CC1)CC2 [Compound 71] |
| ≤ 100 nM | 71 nM | > 10000 nM | O=C(Nc1cc(N2CCC(F)(F)CC2)c2ocnc2c1)c1ccc(NS(=O)(=O)CCO)cc1N1CCC2(CC1)CC2 [Compound 513] |
| ≤ 100 nM | – | > 10000 nM | C[C@@H]1CN(c2cc(NC(=O)c3ccc(NS(=O)(=O)CCO)cc3N3CCC4(CC3)CC4)cc3c2OCC3)CCO1 [Compound 2] |
| ≤ 100 nM | 81 nM | > 10000 nM | O=C(Nc1ccc(S(=O)(=O)NCCO)cc1N1CCC2(CC1)CC2)c1cc2c(c(N3CCC(F)(F)CC3)n1)OCC2 [Compound 113] |
| ≤ 100 nM | 57 nM | > 10000 nM | O=C(Nc1ccc(NS(=O)(=O)CCO)cc1N1CCC2(CC1)CC2)c1cc2c(c(N3CCC(F)(F)CC3)n1)OCC2 [Compound 97] |
| ≤ 100 nM | 71 nM | > 10000 nM | O=C(Nc1cc2c(c(OCCC(F)(F)F)n1)OCC2)c1ccc(NS(=O)(=O)CCO)cc1N1CCC2(CC1)CC2 [Compound 69] |
| – | 88 nM | > 10000 nM | O=C(Nc1ccc(NS(=O)(=O)CCO)cc1N1CCC2(CC1)CC2)c1cc2c(c(OCCC(F)(F)F)c1)OCC2 [Compound 5] |
| ≤ 100 nM | 85 nM | > 10000 nM | C[C@@H]1CN(c2nc(NC(=O)c3ccc(NS(=O)(=O)CCO)cc3N3CCC4(CC3)CC4)cc3c2OCC3)CCO1 [Compound 66] |
| ≤ 100 nM | 51 nM | > 10000 nM | O=C(Nc1cc2c(c(N3CCC(F)(F)CC3)n1)OCC2)c1ccc(S(=O)(=O)NCCO)cc1N1CCC2(CC1)CC2 [Compound 81] |
| ≤ 100 nM | – | > 10000 nM | C[C@H]1CN(c2cc(NC(=O)c3ccc(NS(=O)(=O)CCO)cc3N3CCC4(CC3)CC4)cc3c2OCC3)CCO1 [Compound 3] |

| IC50 [1] | IC50 (HT-29 cells) | IC50 (HCT116 cells) | SMILES |
| --- | --- | --- | --- |
| ≤ 100 nM | 43 nM | > 10000 nM | O=C(Nc1cc2c(c(N3CCC(F)(F)CC3)c1)OCCC2)c1ccc(NS(=O)(=O)CCO)cc1N1CCC2(CC1)CC2 [Compound 539] |
| ≤ 100 nM | 63 nM | > 10000 nM | O=C(Nc1cc2c(c(N3CC(F)(F)C3)c1)OCC2)c1ccc(NS(=O)(=O)CCO)cc1N1CCC2(CC1)CC2 [Compound 4] |
| ≤ 100 nM | 51 nM | > 10000 nM | O=C(Nc1cc2c(c(N3CC(F)(F)C3)n1)OCC2)c1ccc(NS(=O)(=O)CCO)cc1N1CCC2(CC1)CC2 [Compound 68] |
| ≤ 100 nM | 40 nM | > 10000 nM | O=C(Nc1cc(N2CCC(F)(F)CC2)c2occc2c1)c1ccc(NS(=O)(=O)CCO)cc1N1CCC2(CC1)CC2 [Compound 129] |
| ≤ 100 nM | – | > 10000 nM | C[C@H]1CN(c2nc(NC(=O)c3ccc(NS(=O)(=O)CCO)cc3N3CCC4(CC3)CC4)cc3c2OCC3)CCO1 [Compound 67] |
| ≤ 100 nM | 73 nM | > 10000 nM | O=C(Nc1cc2c(c(OC3CCC3)c1)OCC2)c1ccc(NS(=O)(=O)CCO)cc1N1CCC2(CC1)CC2 [Compound 7] |
| ≤ 100 nM | – | > 10000 nM | O=C(Nc1cc2c(c(N3CCC4(CC4)C3)n1)OCC2)c1ccc(NS(=O)(=O)CCO)cc1N1CCC2(CC1)CC2 [Compound 70] |
| – | 89 nM | > 10000 nM | Cc1cc(NC(=O)c2ccc(NS(=O)(=O)CCO)cc2N2CCC3(CC2)CC3)nc(N2CCC(F)(F)CC2)n1 [AMG650, reference compound] |
| ≤ 100 nM | – | – | CC(C)(CO)Nc1nc(C(=O)Nc2ccc(S(=O)(=O)NCCO)cc2N2CCC3(CC2)CC3)cc2c1OCC2 [Compound 123] |
| ≤ 100 nM | – | – | CN1CCc2cc(NC(=O)c3ccc(NS(=O)(=O)CCO)cc3N3CCC4(CC3)CC4)nc(N3CC4CC4C3)c21 (centres unmarked) [Compound 330] |
| ≤ 100 nM | – | – | O=C(Nc1ccc(NS(=O)(=O)CCO)cc1N1CCC2(CC1)CC2)c1cc2c(c(N3CCC(F)CC3)c1)OCC2 [Compound 41] |
| ≤ 100 nM | – | – | C[C@@H]1CN(c2nc(C(=O)Nc3ccc(NS(=O)(=O)[C@@H](C)CO)cc3N3CCC4(CC3)CC4)cc3ccoc23)CCO1 [Compound 239] |
| ≤ 100 nM | – | – | O=C(Nc1ccc(S(=O)(=O)NCCO)cc1N1CCC2(CC1)CC2)c1cc2c(c(N3CCC(F)(F)CC3)n1)OCCC2 [Compound 550] |
| ≤ 100 nM | – | > 10000 nM | Cn1ccc2cc(NC(=O)c3ccc(NS(=O)(=O)CCO)cc3N3CCC4(CC3)CC4)cc(N3CCC(F)(F)CC3)c21 [Compound 385] |
| ≤ 100 nM | – | – | C[C@@H]1CN(c2cc(NC(=O)c3ccc(NS(=O)(=O)[C@H](C)CO)cc3N3CCC4(CC3)CC4)cc3c2OCC3)CCO1 [Compound 16] |
| ≤ 100 nM | – | – | CN1CCc2cc(C(=O)Nc3ccc(S(=O)(=O)NCCO)cc3N3CCC4(CC3)CC4)nc(N3CCC4(CC4)C3)c21 [Compound 374] |
| ≤ 100 nM | – | – | C[C@H](CO)NS(=O)(=O)c1ccc(C(=O)Nc2cc(N3CCC(F)(F)CC3)c3c(ccn3C)c2)c(N2CCC3(CC2)CC3)c1 [Compound 414] |
| ≤ 100 nM | – | – | CN1CCc2cc(C(=O)Nc3ccc(NS(=O)(=O)CCO)cc3N3CCC4(CC3)CC4)nc(OCCC(F)(F)F)c21 [Compound 357] |
